For series [1] the following is noted: not told; cited from earlier work.
In series [2] the test system is cLH rats. The series can be described thus: Forced swim test (FST) after local bilateral infusion in LHb of cLH rats. Format: in vivo, rat. As to conditions: 1 ul each side.
The subject of series [3] is NMDARs. Format: cell-based. The following applies: NBQX, picrotoxin, 0 Mg2+.
In series [4] the test system is spontaneously bursting LHb neurons. Description: Spontaneous bursts of LHb neurons in brain slices, bath application. Type of series: cell-based.
Series [5] deals with lateral habenular neurons. The series can be described thus: Hyperpolarization-triggered rebound bursts in LHb brain slices. Format: cell-based. The following applies: AP5 100 μM.
For series [6], the system named is cLH rats. The series can be described thus: Sucrose preference test (SPT) after local bilateral infusion in LHb of cLH rats. Format: in vivo, rat. As to conditions: 1 ul each side.
Series [7] deals with NMDAR. As to conditions: cited from earlier work.
In series [8] the target is AMPA receptor (AMPAR). As to conditions: cited from earlier work.
For series [9], the system named is silent LHb neurons. Description: NMDA perfusion-induced bursting in originally silent LHb neurons. Type of series: cell-based.
Series [10] concerns C56BL/6 mice. The series can be described thus: Mouse forced swim test after i.p. administration. Format: in vivo. The following applies: 1 hour after administration.
Series [11] concerns LHb neurons. Description: Whole cell patch recording of spontaneous activity of LHb neurons, CRS mouse model. Type of series: cell-based. As to conditions: LHb slices of CRS mice.
In series [12] the test system is LHb neurons. Description: Whole cell patch recording of spontaneous activity of LHb neurons, cLH rat model. As to conditions: LHb slices of cLH rats. Format: cell-based.
Series [13] deals with LHb neurons. The series can be described thus: In vivo multi-tetrode recording in the LHb of CRS mice. The arrangement: species or system mouse.
Where [14] appears, read: ketamine 25 ug, 1 hr after infusion.
Setting [15] is: mibefradil 10 nmol, 1 hr after infusion.

The values below come from patent US11471428B2, “Method and pharmaceutical composition for treating depression” (ZHEJIANG UNIVERSITY, priority 2017, dated 2022).

pIC50: −log10 of the molar value. Counter-ions that a name gives are not always drawn.

As a reminder, the pIC50 is the IC50 on a negative log10 scale, so that one unit is a factor of ten.

Take `O=C(O)[C@@H]1C[C@H](CP(=O)(O)O)CCN1` (racemic) [Selfotel]: the blood-brain barrier permeability entry in series [1] was “capable of crossing a blood-brain barrier or show at least certain level of blood-brain barrier permeability”.
Turning to `NC(CCCP(=O)(O)O)C(=O)O` (centres unmarked) [AP5], in [2] (AP5 40 nmol, 0.5 h), the “immobile time in the FST” value is on record as “efficiently reduced the immobile time”. For the same compound, the “isolated NMDAR-currents (NMDAR-EPSCs)” value in series [3] is “abolished”. For the same compound, the spontaneous burst-firing result in series [4] (AP5 100 μM bath application) is reported as “stopped burst-firing”. Also, the “probability of neuron hyperpolarization-induced burst” value in series [5] came to 0.12. The “hedonic behaviors in the SPT” value in series [6] (AP5 40 nmol, 0.5 h) is “increased hedonic behaviors”. In addition, the blood-brain barrier permeability result in [1] is listed as “do not have blood-brain barrier permeability”. Also, the pIC50 in [7] was 4.52.
Take `NC(CCCCCP(=O)(O)O)C(=O)O` (centres unmarked) [AP7]: the blood-brain barrier permeability result in series [1] was “observed but at a low level”.
With `N[C@@H](Cc1ccccn1)c1ccccc1` [AZD6765], the blood-brain barrier permeability entry in series [1] was “capable of crossing a blood-brain barrier or show at least certain level of blood-brain barrier permeability”.
Turning to `NC12CC3CC(CC(C3)C1)C2` [Amantadine], the blood-brain barrier permeability entry in [1] was “capable of crossing a blood-brain barrier or show at least certain level of blood-brain barrier permeability”.
In the case of `CCc1cccc(N(C)C(N)=Nc2cccc3ccccc23)c1` [Aptiganel], the blood-brain barrier permeability entry in series [1] was “capable of crossing a blood-brain barrier or show at least certain level of blood-brain barrier permeability”.
Turning to `CNCC[C@@H](Oc1ccccc1C)c1ccccc1` [Atomoxetine], the blood-brain barrier permeability result in series [1] was “capable of crossing a blood-brain barrier or show at least certain level of blood-brain barrier permeability”.
Regarding `O=C(O)C1CN(C/C=C/P(=O)(O)O)CCN1` (centres unmarked) [CPPene], the blood-brain barrier permeability result in series [1] is “capable of crossing a blood-brain barrier or show at least certain level of blood-brain barrier permeability”.
As to `COc1ccc2c(c1)[C@]13CCCC[C@@H]1[C@H](C2)N(C)CC3` [Dextromethorphan], the blood-brain barrier permeability result in series [1] is reported as “capable of crossing a blood-brain barrier or show at least certain level of blood-brain barrier permeability”.
As for `NCC1(CC(=O)O)CCCCC1` [Gabapentin], the blood-brain barrier permeability entry in series [1] was “do not have blood-brain barrier permeability”.
For `CCCCCCC(C)(C)c1cc(O)c2c(c1)OC(C)(C)[C@H]1CC=C(CO)C[C@H]21` [HU-211], in series [1], the blood-brain barrier permeability result was “capable of crossing a blood-brain barrier or show at least certain level of blood-brain barrier permeability”.
On to `C/C=C1\[C@H]2C=C(C)C[C@]1(N)c1ccc(=O)[nH]c1C2` [Huperzine A], for which the blood-brain barrier permeability result in [1] is “capable of crossing a blood-brain barrier or show at least certain level of blood-brain barrier permeability”.
Regarding `CC(C)(C)CCN1C[C@@H]2C(CNC(=O)c3cc(Cl)cc(Cl)c3)[C@@H]2C1` (some centres unmarked) [ML218], the blood-brain barrier permeability result in series [1] is reported as “shows at least some level of blood-brain barrier permeability”.
`NS(=O)(=O)c1cccc2c1c([N+](=O)[O-])cc1nc(O)c(O)nc12` [NBQX]: the negative logarithm of the IC50 (pIC50) in [8] was 6.82. In addition, the spontaneous bursts entry in [4] (NBQX 10 μM) is “reduced bursts, but to a much smaller extent than NMDAR blockade”.
With `CN[C@H](CC(=O)O)C(=O)O` [NMDA, N-methyl-D-aspartate], the “originally silent LHb neurons induced to strong bursting activity” value in [9] (NMDA 20 μM, NBQX, picrotoxin, 0 Mg2+) is recorded as 10 out of 13.
For `CN[C@]12CCCC[C@H]1Cc1ccccc12` [PD-137889], the blood-brain barrier permeability entry in series [1] is listed as “capable of crossing a blood-brain barrier or show at least certain level of blood-brain barrier permeability”.
With `CCN(c1ccccc1)c1cc(=NC)n(C)c(C)n1.Cl` [ZD7288], the “effect on spontaneous bursts” value in [4] (ZD7288 50 μM) is “significant but much smaller effect on bursts than mibefradil”.
Take `CC1(C)OC(=O)NC1=O` [dimethadione]: the blood-brain barrier permeability entry in [1] is on record as “shows at least some level of blood-brain barrier permeability”.
With `CCC1(C)CC(=O)NC1=O` (centres unmarked) [ethosuximide], the “effect in the forced swim test” value in [10] (ethosuximide 100 mg/kg i.p.) was “ineffective”. The blood-brain barrier permeability result in [1] is given as “shows at least some level of blood-brain barrier permeability”.
Take `CNC1(c2ccccc2Cl)CCCCC1=O` (centres unmarked) [ketamine]: in [2] (setting [14]), the “immobility time in the FST” value is reported as “sufficient to quickly rescue the depressive-like behaviors”. Further, the “sustained antidepressant effect in FST” value in series [2] (ketamine 25 ug, 14 d) was “sustained antidepressant effects for 14 days”. Also, in series [11], the “increase of bursting neurons in CRS mouse model” value was “reversed by ketamine”. For the same compound, the “effect in the forced swim test” value in [10] (ketamine 2.5 mg/kg i.p.) is “ineffective”. Further, the NMDA-induced bursting activity result in series [9] (additional bath application of 100 μM ketamine) is “blocked”. For the same compound, the “increase of bursting neurons in cLH rat model” value in [12] is listed as “reversed by ketamine”. Besides, in series [6] (setting [14]), the “anhedonia, sucrose preference test” value was “sufficient to quickly rescue the depressive-like behaviors”. Further, the “sustained antidepressant effect in SPT” value in series [6] (ketamine 25 ug, 14 d) is “sustained antidepressant effects for 14 days”. Further, in [13] (10 mg/kg, i.p., 1 h prior to recording, CRS mice), the “LHb bursting activity in vivo” value is reported as “significantly suppressed”. Also, in [13] (10 mg/kg, i.p., CRS mice), the “cumulative frequency distributions of ISI” value is “significantly shifted toward control level”. For the same compound, in series [13] (1 hr after systemic injection, 10 mg/kg, i.p., CRS mice), the “LHb network synchronization (STA and SFC, theta band)” value was “reversed to control level”. Besides, the “50% percentile of ISI” value in [13] (CRS mice treated with ketamine (control 143 ms, CRS 33 ms)) turned out to be 121 ms. Further, the blood-brain barrier permeability result in [1] is listed as “capable of crossing a blood-brain barrier or show at least certain level of blood-brain barrier permeability”.
As to `O=C(O)c1cc(=O)c2ccccc2[nH]1` [kynurenic acid], the blood-brain barrier permeability result in [1] is “capable of crossing a blood-brain barrier or show at least certain level of blood-brain barrier permeability”.
Regarding `CC12CC3CC(C)(C1)CC(N)(C3)C2` [memantine hydrochloride], in [1], the blood-brain barrier permeability result is reported as “capable of crossing a blood-brain barrier or show at least certain level of blood-brain barrier permeability”.
On to `CN1C(=O)CC(C)(c2ccccc2)C1=O` (centres unmarked) [methsuximide], for which the blood-brain barrier permeability result in series [1] is “shows at least some level of blood-brain barrier permeability”.
Take `COCC(=O)O[C@]1(CCN(C)CCCc2nc3ccccc3[nH]2)CCc2cc(F)ccc2[C@@H]1C(C)C` [mibefradil]: the “immobility in the FST” value in series [2] (setting [15]) was “quickly rescued the depressive-like behaviors”. For the same compound, the “anhedonia in the SPT” value in series [6] (setting [15]) is “quickly rescued the depressive-like behaviors”. For the same compound, the blood-brain barrier permeability result in series [1] is “has no blood-brain barrier permeability”.
For `O=C1NC(=O)C(c2ccccc2)(c2ccccc2)N1` [phenytoin], the blood-brain barrier permeability entry in [1] is listed as “shows at least some level of blood-brain barrier permeability”.
Regarding `CCCC(CCC)C(=O)[O-].[Na+]` [sodium valproate], the blood-brain barrier permeability result in [1] is “shows at least some level of blood-brain barrier permeability”.
Consider `CN1C(=O)OC(C)(C)C1=O` [trimethadione], for which the blood-brain barrier permeability entry in [1] is on record as “shows at least some level of blood-brain barrier permeability”.
In the case of `NS(=O)(=O)Cc1noc2ccccc12` [zonisamide], the blood-brain barrier permeability entry in series [1] is recorded as “shows at least some level of blood-brain barrier permeability”.
